Among the data in patent publication US4450269A, “Mono-5-substituted-3-chloro-4H-1,2,6-thiadiazin-4-one antifungal agents” (FMC Corporation, priority 1980, dated 1984) are inhibition values, retold here.

The test deals with Fusarium solani. Nature of the test: Mycelial growth test. The format is cell-based. To be noted: Fusarium solani, 72 h; for inhibition at 5 ppm / inhibition at 10 ppm / inhibition at 20 ppm: PS, 72 hours, read-out: Percent Fungus Growth Inhibition; for inhibition at 40 ppm: read-out: Percent Fungus Growth Inhibition, PS, 40 ppm, 72 hours.

As to `O=c1c(Cl)nsnc1Oc1ccccc1Br` [Compound 34, 3-chloro-5-(2-bromophenoxy)-4H-1,2,6,-thiadiazin-4-one], the inhibition at 5 ppm was determined as 13%, the inhibition at 10 ppm worked out at 43%, the inhibition at 20 ppm turned out to be 50% and the inhibition at 40 ppm is 100%.

On to `O=C(Nc1ccccc1)Oc1ccc(Oc2nsnc(Cl)c2=O)cc1` [Compound 37, 3-chloro-5-[4-(phenylaminocarbonyloxy)phenoxy]-4H-1,2,6,-thiadiazin-4-one], for which the inhibition at 5 ppm stood at 26%, the inhibition at 10 ppm was determined as 16%, the inhibition at 20 ppm was found to be 26% and the inhibition at 40 ppm is 42%.

In the case of `O=C(OCc1ccccc1)Oc1ccc(Oc2nsnc(Cl)c2=O)cc1` [Compound 38, 3-chloro-5-[4-(phenylmethoxycarbonyloxy)phenoxyl]-4H-1,2,6-thiadiazin-4-one], the inhibition at 5 ppm amounted to 10%, the inhibition at 10 ppm was 20%, the inhibition at 20 ppm worked out at 30% and the inhibition at 40 ppm came to 35%.

As for `CSc1ccc(Oc2nsnc(Cl)c2=O)cc1` [Compound 39, 3-chloro-5-[(4-methylthio)phenoxy]-4H-1,2,6,-thiadiazin-4-one], the inhibition at 5 ppm is 42%, the inhibition at 10 ppm was 79%, the inhibition at 20 ppm is 68% and the inhibition at 40 ppm is 42%.

On to `C[S+]([O-])c1ccc(Oc2nsnc(Cl)c2=O)cc1` (stereo not shown) [Compound 40, 3-chloro-5-[(4-methylsulfinyl)phenoxy]-4H-1,2,6,-thiadiazin-4-one], for which the inhibition at 5 ppm worked out at 5%, the inhibition at 10 ppm worked out at 16%, the inhibition at 20 ppm turned out to be 26% and the inhibition at 40 ppm worked out at 53%.

As for `CC(=O)Nc1cccc(Oc2nsnc(Cl)c2=O)c1` [Compound 42, 3-[(3-N--acetylamino)-phenoxy]-5-chloro-4H--1,2,6-thiadiazin-4-one], the inhibition at 5 ppm is 31%, the inhibition at 10 ppm turned out to be 19%, the inhibition at 20 ppm amounted to 13% and the inhibition at 40 ppm stood at 38%.

Turning to `CC(=O)Nc1ccccc1Oc1nsnc(Cl)c1=O` [Compound 43, 3-[(2-acetylamino)-phenoxy]-5-chloro-4H--1,2,6-thiadiazin-4-one], the inhibition at 5 ppm is 0%, the inhibition at 10 ppm came to 0%, the inhibition at 20 ppm amounted to 0% and the inhibition at 40 ppm amounted to 0%.

Regarding `O=c1c(Cl)nsnc1Oc1cccc(C(F)(F)F)c1` [Compound 44, 3-chloro-5-[(3-trifluoromethyl)phenoxy]-4H--1,2,6-thiadiazin-4-one], the inhibition at 5 ppm worked out at 100%, the inhibition at 10 ppm came out at 100%, the inhibition at 20 ppm was 100% and the inhibition at 40 ppm came to 100%.

Take `O=C(O)Cc1ccccc1Oc1nsnc(Cl)c1=O` [Compound 45, 3-(2-carboxymethylphenoxy)-5-chloro-4H--1,2,6-thiadiazin-4-one]: the inhibition at 5 ppm turned out to be 0%, the inhibition at 10 ppm came to 0%, the inhibition at 20 ppm came out at 6% and the inhibition at 40 ppm was 31%.

Consider `N#CCc1ccc(Oc2nsnc(Cl)c2=O)cc1` [Compound 46, 3-chloro-5-[(4-cyanomethyl)-phenoxy]4H--1,2,6-thiadiazin-4-one], for which the inhibition at 5 ppm is 35%, the inhibition at 10 ppm is 70%, the inhibition at 20 ppm is 90% and the inhibition at 40 ppm was 100%.

`CC(=O)c1ccc(Oc2nsnc(Cl)c2=O)cc1` [Compound 47, 3-(4-acetylphenoxy)-5-chloro-4H--1,2,6-thiadiazin-4-one]: the inhibition at 5 ppm was determined as 38%, the inhibition at 10 ppm amounted to 50%, the inhibition at 20 ppm was determined as 100% and the inhibition at 40 ppm amounted to 100%.

Turning to `CC(=O)c1cccc(Oc2nsnc(Cl)c2=O)c1` [Compound 48, 3-(3-acetylphenoxy)-5-chloro-4H--1,2,6-thiadiazin-4-one], the inhibition at 5 ppm is 38%, the inhibition at 10 ppm came to 50%, the inhibition at 20 ppm stood at 100% and the inhibition at 40 ppm was 100%.

Regarding `CC(=O)c1ccccc1Oc1nsnc(Cl)c1=O` [Compound 49, 3-(2-acetylphenoxy)-5-chloro-4H--1,2,6-thiadiazin-4-one], the inhibition at 5 ppm is 0%, the inhibition at 10 ppm stood at 7%, the inhibition at 20 ppm turned out to be 34% and the inhibition at 40 ppm was determined as 67%.

For the molecule `O=C(O)c1ccc(Oc2nsnc(Cl)c2=O)cc1` [Compound 50, 3-(4-carboxyphenoxy)-5-chloro-4H--1,2,6-thiadiazin-4-one], the inhibition at 5 ppm was determined as 25%, the inhibition at 10 ppm was determined as 38%, the inhibition at 20 ppm came out at 63% and the inhibition at 40 ppm came to 100%.

Consider `COc1ccc(Cl)c(Oc2nsnc(Cl)c2=O)c1` [Compound 51, 3-chloro-5-[(2-chloro-5-methoxy)phenoxy]-4H--1,2,6-thiadiazin-4-one], for which the inhibition at 5 ppm stood at 60%, the inhibition at 10 ppm turned out to be 85%, the inhibition at 20 ppm was 100% and the inhibition at 40 ppm was determined as 100%.

Consider `COc1cc(Cl)cc(Oc2nsnc(Cl)c2=O)c1` [Compound 52, 3-chloro-5-[(3-chloro-5-methoxy)phenoxy]-4H--1,2,6-thiadiazin-4-one], for which the inhibition at 5 ppm worked out at 80%, the inhibition at 10 ppm came out at 90%, the inhibition at 20 ppm stood at 100% and the inhibition at 40 ppm was found to be 100%.

On to `O=c1c(Cl)nsnc1Oc1ccc([N+](=O)[O-])cc1Cl` [Compound 53, 3-chloro-5-(2-chloro-4-nitrophenoxy)-4H--1,2,6-thiadiazin-4-one], for which the inhibition at 5 ppm came to 42%, the inhibition at 10 ppm is 68%, the inhibition at 20 ppm is 100% and the inhibition at 40 ppm turned out to be 100%.

Take `Cc1cc(Oc2nsnc(Cl)c2=O)ccc1Cl` [Compound 54, 3-chloro-5-(4-chloro-3-methylphenoxy)-4H--1,2,6-thiadiazin-4-one]: the inhibition at 5 ppm turned out to be 27%, the inhibition at 10 ppm was found to be 30%, the inhibition at 20 ppm amounted to 20% and the inhibition at 40 ppm turned out to be 20%.

On to `Cc1cc(Cl)ccc1Oc1nsnc(Cl)c1=O` [Compound 55, 3-chloro-5-(4-chloro-2-methylphenoxy)-4H--1,2,6-thiadiazin-4-one], for which the inhibition at 5 ppm worked out at 0%, the inhibition at 10 ppm is 13%, the inhibition at 20 ppm was determined as 17% and the inhibition at 40 ppm turned out to be 20%.

Consider `Cc1ccc(Cl)c(Oc2nsnc(Cl)c2=O)c1` [Compound 56, 3-chloro-5-[(2-chloro-5-methyl)phenoxy]-4H--1,2,6-thiadiazin-4-one], for which the inhibition at 5 ppm stood at 70%, the inhibition at 10 ppm was determined as 100%, the inhibition at 20 ppm came to 100% and the inhibition at 40 ppm was determined as 100%.

With `Cc1ccc(Oc2nsnc(Cl)c2=O)c(Br)c1` [Compound 57, 3-[(2-bromo-4-methyl)-phenoxy]-5-chloro-4H--1,2,6-thiadiazin-4-one], the inhibition at 5 ppm was found to be 88%, the inhibition at 10 ppm stood at 100%, the inhibition at 20 ppm was determined as 100% and the inhibition at 40 ppm is 100%.

Take `Cc1cc(Cl)c(Oc2nsnc(Cl)c2=O)cc1C` [Compound 58, 3-chloro-5-[(2-chloro-4,5-dimethyl)phenoxy]-4H--1,2,6-thiadiazin-4-one]: the inhibition at 5 ppm is 56%, the inhibition at 10 ppm came to 56%, the inhibition at 20 ppm stood at 56% and the inhibition at 40 ppm worked out at 44%.

For the molecule `Cc1cc(Oc2nsnc(Cl)c2=O)cc(C)c1Cl` [Compound 59, 3-chloro-5-[(4-chloro-3,5-dimethyl)phenoxy]-4H--1,2,6-thiadiazin-4-one], the inhibition at 5 ppm was found to be 50%, the inhibition at 10 ppm is 56%, the inhibition at 20 ppm is 69% and the inhibition at 40 ppm worked out at 56%.

As to `Cc1cc(Oc2nsnc(Cl)c2=O)cc(C)c1Br` [Compound 60, 3-[(4-bromo-3,5-dimethyl)-phenoxy]-5-chloro-4H--1,2,6-thiadiazin-4-one], the inhibition at 5 ppm amounted to 63%, the inhibition at 10 ppm worked out at 50%, the inhibition at 20 ppm came out at 56% and the inhibition at 40 ppm stood at 75%.

Consider `COc1cc(Oc2nsnc(Cl)c2=O)cc(OC)c1C(C)=O` [Compound 61, 3-[(4-acetyl-3,5-dimethoxy)-phenoxy]-5-chloro-4H--1,2,6-thiadiazin-4-one], for which the inhibition at 5 ppm turned out to be 16%, the inhibition at 10 ppm worked out at 46%, the inhibition at 20 ppm amounted to 23% and the inhibition at 40 ppm amounted to 0%.
